Experimental data taken from patent US20240358693A1, “METHODS OF TREATING PAIN” (Aisa Pharma, Inc., priority 2023, published 2024).

Tested on: participants with SSc-RP
Test: Scleroderma Health Assessment Questionnaire (SHAQ): disability indices and visual analog scales
Assay type: in vivo, human
Text: The standard, validated, patient reported outcome measures tool for SSc patients, the Scleroderma Health Assessment Questionnaire (SHAQ), will be used to assess the participant qualify of life. Details are attached in the Appendix. The participant quality of life will be scored, and a disability index calculated for each questionnaire completed by the patient at Screening and each in-clinic visit. The absolute change in participant quality of life from baseline to the end of each dosing period will be calculated similar to frequency data as before.
The SHAQ includes a Raynaud's VAS, which will be reported at screening and each in-clinic visit. The absolute change in Raynaud-VAS, assessed by the participants response to the SHAQ question ‘In the past 7 days, how much have your Raynaud's interfered with your daily activities?’ at baseline and the end of each dosing period will be calculated similar to frequency data as before.
The SHAQ is used to calculate a Disability Index to assess the participant qualify of life. The eight categories assessed by the Disability Index are 1) dressing and grooming, 2) arising, 3) eating, 4) walking, 5) hygiene, 6) reach, 7) grip, and 8) common daily activities. For each of these categories, patients report the amount of difficulty they have in performing two or three specific activities.
There are four possible responses for the Disability Index questions: • Without any difficulty=0 • With some difficulty=1 • With much difficulty=2 • Unable to do=3. • The highest score reported by the patient for any component question of the eight categories determines the score for that category. • If a component question is left blank or the response is too ambiguous to assign a score, then the score for that category is determined by the remaining completed question(s). • If all component questions are blank or if more than one answer is given, then follow up with the respondent is required. • If the respondent's mark is between the response columns, then move it to the closest one. If it's directly between the two, move it to the higher one.
Each of the disability items on the SHAQ has a companion aids/devices variable that is used to record what type(s) of assistance, if any, the participant uses for his/her usual activities. These variables (see below) are coded as follows: • 0=No assistance is needed. • 1=A special device is used by the patient in his/her usual activities. • 2=The patient usually needs help from another person. • 3=The patient usually needs BOTH a special device AND help from another person.
The scoring variables and scoring rules permit the computation of two disability indices, the Standard Disability Index and the Alternative Disability Index.
This question results in a new set of category scores that are computed by adjusting the score for each category, if necessary, based on the patient's use of an aid or device or assistance for that category. If either devices and/or help from another person are checked for a category, the score is set to “2”, unless the score is already “3” (i.e., scores of “0” or “1” are increased to “2”). For example, if the highest score for the dressing category is “1”, and the patient says they use a device for dressing, the computed category score would be “2”. The sum of the computed categories scores is then calculated and divided by the number of categories answered. This gives a score in the 0 to 3 range.
The aid and device variables are not used to calculate the alternative disability index; it is calculated by adding the scores for each of the categories and dividing by the number of categories answered. This gives a score in the 0 to 3 range.
The standard, validated, patient reported outcome measures tool for SSc patients, the SHAQ, was collected at the time points specified in the study schedules (FIG. 2 and FIGS. 4A and 4B) to assess the participant's quality of life. The SHAQ included a Raynaud's VAS that will also be reported separately.

[1] = Pooled Cilnidipine 10 mg and Cilnidipine 10 mg + Tadalafil 5 mg (N = 9), sensitivity analysis, Modified ITT, Part A
[2] = Pooled Cilnidipine 20 mg and Cilnidipine 20 mg + Tadalafil 5 mg (N = 7), sensitivity analysis, Modified ITT, Part A
[3] = Pooled Cilnidipine (10 mg or 20 mg) (N = 7)

COCCOC(=O)C1=C(C)NC(C)=C(C(=O)OC/C=C/c2ccccc2)C1c1cccc([N+](=O)[O-])c1 (stereo not shown) [Cilnidipine, cilnidipine]
SHAQ VAS Raynaud's: Percent Change from Baseline, Mean [1]: −9.97%
SHAQ VAS Raynaud's: Percent Change from Baseline, Median [1]: −4.39%
SHAQ Standard Disability Index: Baseline, Mean [2]: 0.554
SHAQ Standard Disability Index: Baseline, Median [2]: 0.375
SHAQ Standard Disability Index: Change from Baseline, Mean [2]: −0.092
SHAQ Standard Disability Index: Change from Baseline, Median [2]: 0.000
SHAQ Standard Disability Index: Day 12, Mean [2]: 0.462
SHAQ Standard Disability Index: Day 12, Median [2]: 0.250
SHAQ Standard Disability Index: Percent Change from Baseline, Mean [2]: −5.99%
SHAQ Standard Disability Index: Percent Change from Baseline, Median [2]: −33.33%
SHAQ VAS Breathing Problems: Baseline, Mean [2]: 1.071
SHAQ VAS Breathing Problems: Baseline, Median [2]: 0.800
SHAQ VAS Breathing Problems: Change from Baseline, Mean [2]: 0.171
SHAQ VAS Breathing Problems: Change from Baseline, Median [2]: 0.000
SHAQ VAS Breathing Problems: Day 12, Mean [2]: 1.243
SHAQ VAS Breathing Problems: Day 12, Median [2]: 0.400
SHAQ VAS Breathing Problems: Percent Change from Baseline, Mean [2]: 103.99%
SHAQ VAS Breathing Problems: Percent Change from Baseline, Median [2]: 24.48%
SHAQ VAS Finger Ulcers: Baseline, Mean [2]: 1.986
SHAQ VAS Finger Ulcers: Baseline, Median [2]: 0.100
SHAQ VAS Finger Ulcers: Change from Baseline, Mean [2]: −0.950
SHAQ VAS Finger Ulcers: Change from Baseline, Median [2]: −0.050
SHAQ VAS Finger Ulcers: Day 12, Mean [2]: 1.367
SHAQ VAS Finger Ulcers: Day 12, Median [2]: 0.350
SHAQ VAS Finger Ulcers: Percent Change from Baseline, Mean [2]: −15.69%
SHAQ VAS Finger Ulcers: Percent Change from Baseline, Median [2]: −48.04%
SHAQ VAS Intestinal Problems: Baseline, Mean [2]: 0.886
SHAQ VAS Intestinal Problems: Baseline, Median [2]: 1.000
SHAQ VAS Intestinal Problems: Change from Baseline, Mean [2]: 0.271
SHAQ VAS Intestinal Problems: Change from Baseline, Median [2]: 0.000
SHAQ VAS Intestinal Problems: Day 12, Mean [2]: 1.157
SHAQ VAS Intestinal Problems: Day 12, Median [2]: 0.200
SHAQ VAS Intestinal Problems: Percent Change from Baseline, Mean [2]: 12.47%
SHAQ VAS Intestinal Problems: Percent Change from Baseline, Median [2]: 30.00%
SHAQ VAS Overall Disease Severity: Baseline, Mean [2]: 3.200
SHAQ VAS Overall Disease Severity: Baseline, Median [2]: 2.900
SHAQ VAS Overall Disease Severity: Change from Baseline, Mean [2]: −1.186
SHAQ VAS Overall Disease Severity: Change from Baseline, Median [2]: −1.500
SHAQ VAS Overall Disease Severity: Day 12, Mean [2]: 2.014
SHAQ VAS Overall Disease Severity: Day 12, Median [2]: 1.200
SHAQ VAS Overall Disease Severity: Percent Change from Baseline, Mean [2]: −44.99%
SHAQ VAS Overall Disease Severity: Percent Change from Baseline, Median [2]: −44.74%
SHAQ VAS Pain: Baseline, Mean [2]: 2.667
SHAQ VAS Pain: Baseline, Median [2]: 2.550
SHAQ VAS Pain: Change from Baseline, Mean [2]: −0.700
SHAQ VAS Pain: Change from Baseline, Median [2]: −0.650
SHAQ VAS Pain: Day 12, Mean [2]: 2.000
SHAQ VAS Pain: Day 12, Median [2]: 2.100
SHAQ VAS Pain: Percent Change from Baseline, Mean [2]: −33.40%
SHAQ VAS Pain: Percent Change from Baseline, Median [2]: −51.06%
SHAQ VAS Raynaud's: Baseline, Mean [2]: 2.314
SHAQ VAS Raynaud's: Baseline, Median [2]: 0.900
SHAQ VAS Raynaud's: Change from Baseline, Mean [2]: −1.014
SHAQ VAS Raynaud's: Change from Baseline, Median [2]: −0.300
SHAQ VAS Raynaud's: Day 12, Mean [2]: 1.300
SHAQ VAS Raynaud's: Day 12, Median [2]: 0.600
SHAQ VAS Raynaud's: Percent Change from Baseline, Mean [2]: −34.71%
SHAQ VAS Raynaud's: Percent Change from Baseline, Median [2]: −40.67%
SHAQ patient reported disease severity, Change from Baseline, Mean [3]: −1.214
SHAQ patient reported disease severity, Change from Baseline, Median [3]: −1.500
SHAQ patient reported disease severity, In-Clinic Visit (Day 12), Mean [3]: 1.486
